Reference: ChEMBL document CHEMBL4428061, “Effects of 5-O-Ribosylation of Aminoglycosides on Antimicrobial Activity and Selective Perturbation of Bacterial Translation” (J Med Chem, 2016)
Converted amounts (≈) assume the structure as drawn.

Columns and labels:
[1] = tested on: Pseudomonas aeruginosa; experiment: Antimicrobial activity against Pseudomonas aeruginosa ATCC 47085 measured after 24 hrs by double-dilution method; assay type: functional; settings: ATCC 47085, 24 h
[2] = tested on: Pseudomonas aeruginosa; experiment: Antimicrobial activity against Pseudomonas aeruginosa ATCC 27853 measured after 24 hrs by double-dilution method; assay type: functional; settings: ATCC 27853, 24 h
[3] = tested on: Haemophilus influenzae; experiment: Antimicrobial activity against Haemophilus influenzae ATCC 49247 measured after 24 hrs by double-dilution method; assay type: functional; settings: ATCC 49247, 24 h
[4] = tested on: Haemophilus influenzae; experiment: Antimicrobial activity against Haemophilus influenzae ATCC 10211 measured after 24 hrs by double-dilution method; assay type: functional; settings: ATCC 10211, 24 h
[5] = tested on: Klebsiella pneumoniae; experiment: Antimicrobial activity against Klebsiella pneumoniae ATCC 13883 measured after 24 hrs by double-dilution method; assay type: functional; settings: ATCC 13883, 24 h
[6] = tested on: Klebsiella pneumoniae; experiment: Antimicrobial activity against Klebsiella pneumoniae ATCC 10031 measured after 24 hrs by double-dilution method; assay type: functional; settings: ATCC 10031, 24 h
[7] = tested on: Escherichia coli; experiment: Antimicrobial activity against Escherichia coli ATCC 25922 measured after 24 hrs by double-dilution method; assay type: functional; settings: ATCC 25922, 24 h
[8] = tested on: Acinetobacter baumannii; experiment: Antimicrobial activity against Acinetobacter baumannii ATCC 19606 measured after 24 hrs by double-dilution method; assay type: functional; settings: ATCC 19606 = CIP 70.34 = JCM 6841, 24 h
[9] = tested on: Burkholderia cepacia; experiment: Antimicrobial activity against aminoglycoside-resistant Burkholderia cepacia ATCC 25416 measured after 24 hrs by double-dilution method; assay type: functional; settings: ATCC 25416, 24 h
[10] = tested on: Escherichia coli; experiment: Antimicrobial activity against aminoglycoside-resistant Escherichia coli ATCC BAA-2452 measured after 24 hrs by double-dilution method; assay type: functional; settings: ATCC BAA-2452, 24 h
[11] = tested on: Klebsiella pneumoniae; experiment: Antimicrobial activity against aminoglycoside-resistant Klebsiella pneumoniae ATCC BAA-2470 measured after 24 hrs by double-dilution method; assay type: functional; settings: ATCC BAA-2470, 24 h
[12] = tested on: Ribosomal RNA A-site; experiment: Binding affinity to 16S rRNA A-site in Escherichia coli S30 extract assessed as inhibition of translation measured after 30 mins by coupled transcription/translation-based luciferase reporter gene assay; assay type: nucleic-acid assay
[13] = Inhibition of cytosolic eukaryotic translation in rabbit reticulocyte S30 extract measured after 60 mins by coupled transcription/translation-based luciferase reporter gene assay; parameters: species or system Oryctolagus cuniculus
[14] = tested on: cytosolic eukaryotic translation versus 16S rRNA A-site; experiment: Selectivity ratio, ratio of IC50 for cytosolic eukaryotic translation in rabbit reticulocyte S30 extract to IC50 for 16S rRNA A-site in Escherichia coli S30 extract; assay type: toxicity; settings: read-out: Ratio IC50
[15] = Acute toxicity in iv dosed rat; assay type: organism-based; settings: in vivo

## NC[C@H]1O[C@H](O[C@H]2[C@H](O[C@@H]3O[C@H](CO)[C@@H](O)[C@H]3O)[C@@H](O[C@H]3O[C@H](CO)[C@@H](O)[C@H](N)[C@H]3O)[C@H](N)C[C@@H]2N)[C@H](N)C[C@@H]1O
[1]
  MIC: 2 µg/mL (≈ 3.34 µM)
[2]
  MIC: 4 µg/mL (≈ 6.67 µM)
[3]
  MIC: 8 µg/mL (≈ 13.3 µM)
[4]
  MIC: 8 µg/mL (≈ 13.3 µM)
[5]
  MIC: 2 µg/mL (≈ 3.34 µM)
[6]
  MIC: 2 µg/mL (≈ 3.34 µM)
[7]
  MIC: 4 µg/mL (≈ 6.67 µM)
[8]
  MIC: 32 µg/mL (≈ 53.4 µM)
[9]
  MIC: > 32 µg/mL
[10]
  MIC: > 32 µg/mL
[11]
  MIC: > 32 µg/mL
[12]
  IC50: 0.08 µM
[13]
  IC50: 49.1 µM
[14]
  selectivity ratio: 614

## NC[C@H]1O[C@H](O[C@H]2[C@H](O[C@@H]3O[C@H](CO)[C@@H](O)[C@H]3O)[C@@H](O[C@H]3O[C@H](CO)[C@@H](O)[C@H](N)[C@H]3O)[C@H](N)C[C@@H]2N)[C@H](N)[C@@H](O)[C@@H]1O
[1]
  MIC: > 32 µg/mL
[2]
  MIC: > 32 µg/mL
[3]
  MIC: 8 µg/mL (≈ 13 µM)
[4]
  MIC: 8 µg/mL (≈ 13 µM)
[5]
  MIC: 4 µg/mL (≈ 6.5 µM)
[6]
  MIC: 4 µg/mL (≈ 6.5 µM)
[7]
  MIC: 4 µg/mL (≈ 6.5 µM)
[8]
  MIC: > 32 µg/mL
[9]
  MIC: > 32 µg/mL
[10]
  MIC: > 32 µg/mL
[11]
  MIC: > 32 µg/mL
[12]
  IC50: 0.03 µM
[13]
  IC50: 43.8 µM
[14]
  selectivity ratio: 1460

## NCC[C@H](O)C(=O)N[C@@H]1C[C@H](N)[C@@H](O[C@H]2O[C@H](CN)[C@@H](O)[C@H](O)[C@H]2O)[C@H](O[C@@H]2O[C@H](CO)[C@@H](O)[C@H]2O)[C@H]1O[C@H]1O[C@H](CO)[C@@H](O)[C@H](N)[C@H]1O
[1]
  MIC: > 32 µg/mL
[2]
  MIC: > 32 µg/mL
[3]
  MIC: > 32 µg/mL
[4]
  MIC: > 32 µg/mL
[5]
  MIC: > 32 µg/mL
[6]
  MIC: > 32 µg/mL
[7]
  MIC: > 32 µg/mL
[8]
  MIC: > 32 µg/mL
[9]
  MIC: > 32 µg/mL
[10]
  MIC: > 32 µg/mL
[11]
  MIC: > 32 µg/mL
[12]
  IC50: 6.44 µM
[13]
  IC50: 193 µM
[14]
  selectivity ratio: 30

## NC[C@H]1O[C@H](O[C@H]2[C@H](O[C@@H]3O[C@H](CO)[C@@H](O)[C@H]3O)[C@@H](O)[C@H](N)C[C@@H]2N)[C@H](N)C[C@@H]1O
[1]
  MIC: 4 µg/mL (≈ 9.12 µM)
[2]
  MIC: 4 µg/mL (≈ 9.12 µM)
[3]
  MIC: 4 µg/mL (≈ 9.12 µM)
[4]
  MIC: 4 µg/mL (≈ 9.12 µM)
[5]
  MIC: 8 µg/mL (≈ 18.2 µM)
[6]
  MIC: 4 µg/mL (≈ 9.12 µM)
[7]
  MIC: 2 µg/mL (≈ 4.56 µM)
[8]
  MIC: 32 µg/mL (≈ 73 µM)
[9]
  MIC: > 32 µg/mL
[10]
  MIC: > 32 µg/mL
[11]
  MIC: > 32 µg/mL
[12]
  IC50: 0.11 µM
[13]
  IC50: 135 µM
[14]
  selectivity ratio: 1230

## NC[C@H]1O[C@H](O[C@H]2[C@H](O)[C@@H](O)[C@H](N)C[C@@H]2N)[C@H](N)C[C@@H]1O
[1]
  MIC: > 32 µg/mL
[2]
  MIC: > 32 µg/mL
[3]
  MIC: > 32 µg/mL
[4]
  MIC: > 32 µg/mL
[5]
  MIC: > 32 µg/mL
[6]
  MIC: > 32 µg/mL
[7]
  MIC: 16 µg/mL (≈ 52.2 µM)
[8]
  MIC: > 32 µg/mL
[9]
  MIC: > 32 µg/mL
[10]
  MIC: > 32 µg/mL
[11]
  MIC: > 32 µg/mL
[12]
  IC50: 0.43 µM
[13]
  IC50: 121 µM
[14]
  selectivity ratio: 282

## NCC[C@H](O)C(=O)N[C@@H]1C[C@H](N)[C@@H](O[C@H]2O[C@H](CN)[C@@H](O)[C@H](O)[C@H]2O)[C@H](O)[C@H]1O[C@H]1O[C@H](CO)[C@@H](O)[C@H](N)[C@H]1O [AMIKACIN]
[1]
  MIC: 4 µg/mL (≈ 6.83 µM)
[2]
  MIC: 8 µg/mL (≈ 13.7 µM)
[3]
  MIC: 32 µg/mL (≈ 54.6 µM)
[4]
  MIC: 32 µg/mL (≈ 54.6 µM)
[5]
  MIC: 4 µg/mL (≈ 6.83 µM)
[6]
  MIC: 4 µg/mL (≈ 6.83 µM)
[7]
  MIC: 2 µg/mL (≈ 3.42 µM)
[8]
  MIC: 4 µg/mL (≈ 6.83 µM)
[9]
  MIC: > 32 µg/mL
[10]
  MIC: > 32 µg/mL
[11]
  MIC: > 32 µg/mL
[12]
  IC50: 0.07 µM
[13]
  IC50: 64.6 µM
[14]
  selectivity ratio: 923

## NC[C@H]1O[C@H](O[C@H]2[C@H](O)[C@@H](O[C@H]3O[C@H](CO)[C@@H](O)[C@H](N)[C@H]3O)[C@H](N)C[C@@H]2N)[C@H](N)[C@@H](O)[C@@H]1O [BEKANAMYCIN]
[1]
  MIC: > 32 µg/mL
[2]
  MIC: > 32 µg/mL
[3]
  MIC: 4 µg/mL (≈ 8.27 µM)
[4]
  MIC: 2 µg/mL (≈ 4.14 µM)
[5]
  MIC: 1 µg/mL (≈ 2.07 µM)
[6]
  MIC: 1 µg/mL (≈ 2.07 µM)
[7]
  MIC: 4 µg/mL (≈ 8.27 µM)
[8]
  MIC: 4 µg/mL (≈ 8.27 µM)
[9]
  MIC: > 32 µg/mL
[10]
  MIC: > 32 µg/mL
[11]
  MIC: > 32 µg/mL
[12]
  IC50: 0.04 µM
[13]
  IC50: 28.9 µM
[14]
  selectivity ratio: 722

## NC[C@H]1O[C@H](O[C@H]2[C@H](O)[C@@H](O[C@H]3O[C@H](CO)[C@@H](O)[C@H](N)[C@H]3O)[C@H](N)C[C@@H]2N)[C@H](O)[C@@H](O)[C@@H]1O [KANAMYCIN]
[1]
  MIC: > 32 µg/mL
[2]
  MIC: > 32 µg/mL
[3]
  MIC: 8 µg/mL (≈ 16.5 µM)
[4]
  MIC: 8 µg/mL (≈ 16.5 µM)
[5]
  MIC: 4 µg/mL (≈ 8.26 µM)
[6]
  MIC: 4 µg/mL (≈ 8.26 µM)
[7]
  MIC: 4 µg/mL (≈ 8.26 µM)
[8]
  MIC: 8 µg/mL (≈ 16.5 µM)
[9]
  MIC: > 32 µg/mL
[10]
  MIC: > 32 µg/mL
[11]
  MIC: > 32 µg/mL
[12]
  IC50: 0.1 µM
[13]
  IC50: 111 µM
[14]
  selectivity ratio: 1110

## NC[C@H]1O[C@H](O[C@H]2[C@H](O)[C@@H](O)[C@H](N)C[C@@H]2N)[C@H](N)[C@@H](O)[C@@H]1O [NEAMINE]
[1]
  MIC: > 32 µg/mL
[2]
  MIC: > 32 µg/mL
[3]
  MIC: 32 µg/mL (≈ 99.3 µM)
[4]
  MIC: 32 µg/mL (≈ 99.3 µM)
[5]
  MIC: 16 µg/mL (≈ 49.6 µM)
[6]
  MIC: 16 µg/mL (≈ 49.6 µM)
[7]
  MIC: 16 µg/mL (≈ 49.6 µM)
[8]
  MIC: > 32 µg/mL
[9]
  MIC: > 32 µg/mL
[10]
  MIC: > 32 µg/mL
[11]
  MIC: > 32 µg/mL
[12]
  IC50: 0.46 µM
[13]
  IC50: 99 µM
[14]
  selectivity ratio: 215
[15]
  LD50: 121 to 129 mg/kg

## NC[C@H]1O[C@H](O[C@H]2[C@H](O[C@@H]3O[C@H](CO)[C@@H](O)[C@H]3O)[C@@H](O)[C@H](N)C[C@@H]2N)[C@H](N)[C@@H](O)[C@@H]1O [RIBOSTAMYCIN]
[1]
  MIC: > 32 µg/mL
[2]
  MIC: > 32 µg/mL
[3]
  MIC: 8 µg/mL (≈ 17.6 µM)
[4]
  MIC: 8 µg/mL (≈ 17.6 µM)
[5]
  MIC: 8 µg/mL (≈ 17.6 µM)
[6]
  MIC: 8 µg/mL (≈ 17.6 µM)
[7]
  MIC: 4 µg/mL (≈ 8.8 µM)
[8]
  MIC: 16 µg/mL (≈ 35.2 µM)
[9]
  MIC: > 32 µg/mL
[10]
  MIC: > 32 µg/mL
[11]
  MIC: > 32 µg/mL
[12]
  IC50: 0.09 µM
[13]
  IC50: 116 µM
[14]
  selectivity ratio: 1290

## NC[C@H]1O[C@H](O[C@H]2[C@H](O)[C@@H](O[C@H]3O[C@H](CO)[C@@H](O)[C@H](N)[C@H]3O)[C@H](N)C[C@@H]2N)[C@H](N)C[C@@H]1O [TOBRAMYCIN]
[1]
  MIC: 1 µg/mL (≈ 2.14 µM)
[2]
  MIC: 1 µg/mL (≈ 2.14 µM)
[3]
  MIC: 4 µg/mL (≈ 8.56 µM)
[4]
  MIC: 4 µg/mL (≈ 8.56 µM)
[5]
  MIC: 1 µg/mL (≈ 2.14 µM)
[6]
  MIC: 1 µg/mL (≈ 2.14 µM)
[7]
  MIC: 2 µg/mL (≈ 4.28 µM)
[8]
  MIC: 2 µg/mL (≈ 4.28 µM)
[9]
  MIC: > 32 µg/mL
[10]
  MIC: > 32 µg/mL
[11]
  MIC: > 32 µg/mL
[12]
  IC50: 0.07 µM
[13]
  IC50: 42.3 µM
[14]
  selectivity ratio: 605
